Test [1] has as its target T1, PRMT5-MEP50 enzyme complex (Homo sapiens, UniProt O14744).
T1 construct: Full-length (FL)-PRMT5-MEP50 enzyme complex (recombinant proteins from baculovirus-transfected Sf21 cells: FL-PRMT5; MW=73837 kDa and FL-MEP50; MW=38614); made in house; host or cells: baculovirus-transfected Sf21 cells
Put plainly: PRMT5-MEP50 Enzyme Methylation Assay (Version B). It counts as biochemical. Put shortly:
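Recombinant full-length PRMT5-MEP50 (0.5 nM, Sf21-expressed) pre-incubated 30 min at 37 °C with compound (20-point, 1:2, top 100000 nM), then reacted 150 min at 37 °C with 75 nM biotinylated H4R3 peptide and 15 μM SAM in Bicine pH 8.0. Formic acid quench; SAMDI MS conversion to Me2; EC50 by sigmoidal or biphasic fit.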

The target of test [2] is T2, PRMT5 (Homo sapiens, UniProt O14744).
T2 construct: seeded with 4000 MCF-7 cells in 30 μl media; endogenous in cells; host or cells: MCF-7 cells
T2 sequence (O14744 whole entry): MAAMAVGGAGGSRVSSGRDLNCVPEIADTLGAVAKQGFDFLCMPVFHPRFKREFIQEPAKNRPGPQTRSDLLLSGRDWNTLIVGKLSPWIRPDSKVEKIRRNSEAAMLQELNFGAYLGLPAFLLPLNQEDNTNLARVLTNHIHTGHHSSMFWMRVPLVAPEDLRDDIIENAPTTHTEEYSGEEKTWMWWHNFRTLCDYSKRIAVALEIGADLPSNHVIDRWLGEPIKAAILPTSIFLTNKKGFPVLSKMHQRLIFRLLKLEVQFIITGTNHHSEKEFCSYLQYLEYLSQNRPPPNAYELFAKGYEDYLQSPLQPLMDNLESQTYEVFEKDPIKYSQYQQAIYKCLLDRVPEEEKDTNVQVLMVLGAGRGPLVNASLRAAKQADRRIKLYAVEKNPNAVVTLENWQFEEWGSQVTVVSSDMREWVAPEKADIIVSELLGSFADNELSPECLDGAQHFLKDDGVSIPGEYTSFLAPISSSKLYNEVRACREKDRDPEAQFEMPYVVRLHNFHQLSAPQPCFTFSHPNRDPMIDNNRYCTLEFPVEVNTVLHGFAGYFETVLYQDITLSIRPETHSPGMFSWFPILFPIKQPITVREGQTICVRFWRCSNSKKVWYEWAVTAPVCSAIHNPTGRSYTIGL
T2 sequence (Q9BQA1 whole entry partner): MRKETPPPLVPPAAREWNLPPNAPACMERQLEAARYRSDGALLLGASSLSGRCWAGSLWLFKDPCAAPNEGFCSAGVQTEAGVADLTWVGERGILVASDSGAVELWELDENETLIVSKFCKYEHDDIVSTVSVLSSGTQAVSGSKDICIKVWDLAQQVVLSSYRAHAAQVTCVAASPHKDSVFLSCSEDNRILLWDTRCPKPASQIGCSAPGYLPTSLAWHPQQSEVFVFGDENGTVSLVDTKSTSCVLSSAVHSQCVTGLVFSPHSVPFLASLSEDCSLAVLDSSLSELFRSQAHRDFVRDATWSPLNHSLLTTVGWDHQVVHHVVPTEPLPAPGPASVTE
Put plainly: PRMT5 Cell Target Engagement (TE) Assay. It counts as cell-based. The settings on record: MCF-7 cells, treated for 3 days, symmetric dimethylation of arginine (SDMA) by high content imaging. An outline of the steps: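 Readout is single-cell nuclear symmetric-dimethylarginine immunofluorescence (Alexa488), normalized to DMSO-treated cells. Compounds were applied to MCF-7 cells for 3 days at 37 °C, top concentration 10000 nM in 1:3 steps over ten points; curves fitted with 4-parameter robust fit.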

The mark [3] stands for this setting: first of two EC50s: 7 parameters biphasic model, read-out: Enzyme Methylation Assay Version B (EC50_1).
Setting [4] is: second of two EC50s: 7 parameters biphasic model, read-out: Enzyme Methylation Assay Version B (EC50_2).
Where [5] appears, read: only one EC50 shown: 4 parameters single site sigmoidal model, 30 min pre-incubation, read-out: Enzyme Methylation Assay Version B (EC50).

Read-outs that look alike come from different tables or passages of the source.

For 25 molecules, EC50 results are on record in patent publication US12595248B2, “PRMT5 inhibitors” (Merck Sharp & Dohme LLC, priority 2019, dated 2026).

T1 sequence (O14744 whole entry): as the sequence (O14744 whole entry) above
T1 sequence (Q9BQA1 whole entry partner): as the sequence (Q9BQA1 whole entry partner) above

As for `O=C(c1cn2cc(Br)ccc2n1)N1CC[C@@H](N2CCc3ccccc3C2)[C@H](O)C1` (single isomer, unassigned) [Example 2], the figures for the EC50 in test [1] (setting [3]), in test [1] (setting [4]) and in test [2] were 13 nM, 5890 nM and 509 nM, respectively.

Consider `CC1OC(=O)Nc2cc(C(=O)N3CC[C@H](N4CCc5ccccc5C4)[C@@H](O)C3)c(F)cc21` (single isomer, unassigned) [Example 100], for which the EC50 in test [1] (setting [3]) was 4.8 nM; in test [1] (setting [4]), 1720 nM; in test [2], 15 nM.

Regarding `CCC1Oc2ccc(C(=O)N3CC[C@@H](N4CCc5ccccc5C4)[C@H](O)C3)cc2NC1=O` (single isomer, unassigned) [Example 13], the EC50 in test [1] (setting [3]) was roughly 14 nM; in test [1] (setting [4]), 17600 nM; in test [2], 641 nM.

Regarding `CC(=O)N1CCC(Nc2cc(C(=O)N3CCC(N4Cc5ccccc5C(F)(F)C4)C(O)C3)c(Cl)cn2)CC1` (single isomer, unassigned) [Example 25, l-(4-((5-chloro-4-(-4-(4,4-difluoro-3,4-dihydroisoquinolin-2(1H)-yl)-3-hydroxypiperidine-1-carbonyl)pyridin-2-yl)amino)piperidin-1-yl)ethan-1-one], the EC50 in test [1] (setting [3]) was 841 nM; in test [1] (setting [4]), 33900 nM; in test [2], greater than 10000 nM.

For `CCOC(=O)N1CCC(Nc2cc(C(=O)N3CC[C@H](N4CCc5ccccc5C4)[C@@H](O)C3)c(F)cn2)CC1` [Example 106, ethyl 4-((4-((3S,4S)-4-(3,4-dihydroisoquinolin-2(1H)-yl)-3-hydroxypiperidine-1-carbonyl)-5-fluoropyridin-2-yl)amino)piperidine-1-carboxylate], the EC50 in test [1] (setting [3]) came to 1.9 nM; in test [1] (setting [4]), 496 nM; in test [2], 6.2 nM.

Regarding `CCC1Oc2ccc(C(=O)N3CC[C@H](N4CCc5ccccc5C4)[C@@H](O)C3)cc2NC1=O` (single isomer, unassigned) [Example 11], the EC50 is 1.8 nM in test [1] (setting [3]), 1070 nM in test [1] (setting [4]) and 4.9 nM in test [2].

For `CC1OC(=O)Nc2cc(C(=O)N3CC[C@H](N4CCc5ccccc5C4)[C@@H](O)C3)ccc21` (single isomer, unassigned) [Example 94], the EC50 was roughly 291 nM in test [1] (setting [3]), greater than 100000 nM in test [1] (setting [4]) and 4560 nM in test [2].

On to `CC(=O)N1CCC(Nc2cc(C(=O)N3CC[C@H](N4CCc5ccccc5C4)[C@@H](O)C3)ccn2)C(F)(F)C1` (single isomer, unassigned) [Example 7], for which the EC50 in test [1] (setting [3]) was determined as 16 nM; in test [1] (setting [4]), 8570 nM; in test [2] it was 326 nM.

Consider `CC(C)(C#N)c1ccc(C(=O)N2CC[C@H](N3CCc4ccccc4C3)[C@@H](O)C2)cn1` (single isomer, unassigned) [Example 89], for which the EC50 in test [1] (setting [3]) is roughly 110 nM; in test [1] (setting [4]), greater than 100000 nM; in test [2], 3950 nM.

For the molecule `CC(=O)N1CCC(Nc2cc(C(=O)N3CCC(N4CCc5ccccc5C4)C(O)C3C)ccn2)CC1` (single isomer, unassigned) [Example 21, 1-(4-((4-(4-(3,4-dihydroisoquinolin-2(1H)-yl)-3-hydroxy-2-methylpiperidine-1-carbonyl)pyridin-2-yl)amino)piperidin-1-yl)ethan-1-one], the EC50 in test [1] (setting [3]) is roughly 56 nM; in test [1] (setting [4]) it was 25400 nM; in test [2] it was 1580 nM.

With `CC(=O)N1CCC(Nc2cc(C(=O)N3C[C@H]4C[C@@H]3C(O)C4N3CCc4ccccc4C3)c(F)cn2)CC1` (single isomer, unassigned) [Example 30], the EC50 is 4830 nM in test [1] (setting [5]) and greater than 10000 nM in test [2].

Regarding `CC1OC(=O)Nc2cc(C(=O)N3CC[C@@H](N4CCc5ccccc5C4)[C@H](O)C3)ccc21` (single isomer, unassigned) [Example 93], the values for the EC50 in test [1] (setting [3]), in test [1] (setting [4]) and in test [2] were roughly 18 nM, 11800 nM and 182 nM, respectively.

As to `CCOc1cc(C(=O)N2C3CCC2COC3)ccc1C(=O)N1CC[C@H](N2CCc3ccccc3C2)[C@@H](O)C1` [Example 33], the EC50 in test [1] (setting [3]) worked out at 23 nM; in test [1] (setting [4]), 4650 nM; in test [2], 27 nM.

For `CC1(C)OC(=O)Nc2cc(C(=O)N3CC[C@@H](N4CCc5ccccc5C4)[C@H](O)C3)ccc21` [Example 98, 7-((3R,4R)-4-(3,4-dihydroisoquinolin-2(1H)-yl)-3-hydroxypiperidine-1-carbonyl)-4,4-dimethyl-1,4-dihydro-2H-benzo[d][1,3]oxazin-2-one], the EC50 in test [1] (setting [3]) is roughly 118 nM; in test [1] (setting [4]), greater than 100000 nM; in test [2], 5830 nM.

`CC(=O)N1CCC(Nc2cc(C(=O)N3CC[C@@H](N4CCc5ccccc5C4)[C@H](O)C3)c(F)cn2)CC1` [Example 3, 1-(4-((4-((3R,4R)-4-(3,4-dihydroisoquinolin-2(1H)-yl)-3-hydroxypiperidine-l-carbonyl)-5-fluoropyridin-2-yl)amino)piperidin-l-yl)ethan-l-one]: the figures for the EC50 in test [1] (setting [3]), in test [1] (setting [4]) and in test [2] were roughly 75 nM, 37600 nM and 3090 nM, respectively.

Consider `CC(=O)N1CCC(Nc2nccc(C(=O)N3CC[C@@H](N4CCc5ccccc5C4)[C@H](O)C3)c2F)C(F)(F)C1` (single isomer, unassigned) [Example 17], for which the figures for the EC50 in test [1] (setting [3]), in test [1] (setting [4]) and in test [2] were roughly 191 nM, greater than 100000 nM and 8420 nM, respectively.

On to `Cc1ccc2c(c1)CN(C1CCN(C(=O)c3ccc(OCC(F)(F)F)nc3)CC1O)CC2` (single isomer, unassigned) [Example 47, ((3R,4R or 3S,4S)-3-hydroxy-4-(7-methyl-3,4-dihydroisoquinolin-2(1H)-yl)piperidin-1-yl)(6-(2,2,2-trifluoroethoxy)pyridin-3-yl)methanone], for which the EC50 is 1180 nM in test [1] (setting [5]) and greater than 10000 nM in test [2].

Turning to `O=C(c1ccc(-c2ncnn2C2CC2)cc1)N1CC[C@H](N2CCc3ccccc3C2)[C@@H](O)C1` [Example 60, (4-(1-cyclopropyl-1H-1,2,4-triazol-5-yl)phenyl)((3S,4S)-4-(3,4-dihydroisoquinolin-2(1H)-yl)-3-hydroxypiperidin-1-yl)methanone], the EC50 in test [1] (setting [3]) stood at 14 nM; in test [1] (setting [4]), 4680 nM; in test [2], 435 nM.

On to `O=C(c1ccc(OCC(F)(F)F)nc1)N1CCC(N2Cc3ccccc3C(F)(F)C2)C(O)C1` (single isomer, unassigned) [Example 26, (-4-(4,4-difluoro-3,4-dihydroisoquinolin-2(1H)-yl)-3-hydroxypiperidin-1-yl)(6-(2,2,2-trifluoroethoxy)pyridin-3-yl)methanone], for which the EC50 was 15200 nM in test [1] (setting [5]) and greater than 10000 nM in test [2].

For the molecule `CC1(C)OC(=O)Nc2cc(C(=O)N3CC[C@H](N4CCc5ccccc5C4)[C@@H](O)C3)ccc21` [Example 97, 7-((3S,4S)-4-(3,4-dihydroisoquinolin-2(1H)-yl)-3-hydroxypiperidine-1-carbonyl)-4,4-dimethyl-1,4-dihydro-2H-benzo[d][1,3]oxazin-2-one], the results for the EC50 in test [1] (setting [3]), in test [1] (setting [4]) and in test [2] were 5.4 nM, 2850 nM and 59 nM, respectively.

`CC(=O)N1CCC(Nc2cc(C(=O)N3CCC(N4Cc5ccccc5C(F)(F)C4)C(O)C3)c(Cl)cn2)CC1` (single isomer, unassigned) [Example 28, l-(4-((5-chloro-4-(-4-(4,4-difluoro-3,4-dihydroisoquinolin-2(lH)-yl)-3-hydroxypiperidine-1 - carbonyl)pyridin-2-yl)amino)piperidin-1-yl)ethan-1-one]: the results for the EC50 in test [1] (setting [3]), in test [1] (setting [4]) and in test [2] were 1270 nM, 45200 nM and 1660 nM, respectively.

As for `CC(=O)N1CCC(Nc2cc(C(=O)N3CC[C@H](N4CCc5ccccc5C4)[C@@H](O)C3)c(F)cn2)C(F)(F)C1` (single isomer, unassigned) [Example 86], the EC50 in test [1] (setting [3]) worked out at 5.3 nM; in test [1] (setting [4]), 3760 nM; in test [2] it was 4.4 nM.

Regarding `O=C(c1ccn(CC(F)(F)F)c(=O)c1)N1CC[C@H](N2CCc3ccccc3C2)[C@@H](O)C1` [Example 31, 4-((3S,4S)-4-(3,4-dihydroisoquinolin-2(1H)-yl)-3-hydroxypiperidine-1-carbonyl)-1-(2,2,2-trifluoroethyl)pyridin-2(1H)-one], the EC50 in test [1] (setting [3]) is roughly 30 nM; in test [1] (setting [4]), 34300 nM; in test [2], 405 nM.

As to `COc1cnc(NC2CCN(C(C)=O)CC2)cc1C(=O)N1CC[C@H](N2CCc3ccccc3C2)[C@@H](O)C1` [Example 88, 1-(4-((4-((3S,4S)-4-(3,4-dihydroisoquinolin-2(1H)-yl)-3-hydroxypiperidine-1-carbonyl)-5-methoxypyridin-2-yl)amino)piperidin-1-yl)ethan-1-one], the EC50 in test [1] (setting [3]) stood at 9.3 nM; in test [1] (setting [4]), 2040 nM; in test [2] it was 14 nM.

As to `CC(=O)N1CCC(Nc2cc(C(=O)N3CCC(N4CCc5ccccc5C4)C(O)C3C)ccn2)CC1` (single isomer, unassigned) [Example 20, l-(4-((4-(4-(3,4-dihydroisoquinolin-2(1H)-yl)-3-hydroxy-2-methylpiperidine-1-carbonyl)pyridin-2-yl)amino)piperidin-1-yl)ethan-1-one], the EC50 in test [1] (setting [3]) stood at 4.4 nM; in test [1] (setting [4]) it was 1500 nM; in test [2], 12 nM.
